Legend:
DCAF10 = experiment: Peptide pull-down with quantitative MS, HeLa lysate, DCAF10; assay type: binding, human (HeLa); details: for DCAF10 binding (in words): Nt-Ac vs Nt-free peptides
Protocol: Beads presenting 10-residue synthetic Nt-peptides of proteins of interest in their free (Nt-free) or modified (e.g., Nt-acetylated) versions were incubated with lysates from HeLa cells, followed by MS-based quantification of retained binders (Fig. 1a).
Biotinylated 10-mer Nt-peptides (Nt-free, Nt-acetylated, and, where indicated, Nt-myristoylated; sequences in Supplementary Table 1) were synthesized with a C-terminal Lys3 spacer and biotin, immobilized on magnetic streptavidin beads, and incubated with HeLa or mouse liver lysates. After standardized washes, bound proteins were on-bead reduced/alkylated, digested with LysC/trypsin, desalted, and analysed by LC-MS in DIA mode (Orbitrap Exploris 480) as described previously[24]. Variants included endogenous Nt-sequences, swap and mutant (Ala-Ala-Ala or Nt-amino acids) peptides, and pairwise comparisons of conditions of interest.
All MS experiments were performed as independent biological triplicates. Relative protein quantification was carried out using the label-free algorithm integrated in DIA-NN[53], and statistical testing was performed in Perseus using a two-sided Student’s t test with permutation-based multiple-testing-adjusted p-values[53],[54], as specified in the figure legends. […] Volcano blots were visualized with RStudio (version 2023.06.0). […] Cell experiments were performed as biological replicates, and binding assays as independent assays. […] Data are presented as mean ± s.d. Fold changes are reported as the ratio of the normalized value for the condition of interest to the normalized control value, with mean ± s.d. computed across biological replicates.

GST-DCAF10 = experiment: Streptavidin pull-down of GST-DCAF10 with biotinylated Nt-peptides; assay type: binding, human; details: 0.5 µM GST-DCAF10, 5 µM peptide, 1 h RT; WB
Protocol: To confirm direct interactions between peptides and DCAF10, we performed pull-down assays using bead-bound Nt-peptide variants incubated with purified full-length GST-DCAF10 or GST as a negative control (Fig. 2m–p and Supplementary Fig. 4a).
230 of 1:100), and desalted/concentrated on C18 reversed phase stage tips as previously
MS measurements settings are stated in MS measurements and raw file
BL21(DE3) cells (Thermo Fisher Scientific,
240 agar) plate containing 100 μg/mL ampicillin and 34 μg/mL chloramphenicol, then
Terrific broth (TB) medium (24 g/L yeast extract,
243 20 g/L tryptone, glycerol 4 mL/L, 100 mL/L phosphate buffer containing 0.17 M KH2PO4
244 and 0.72 M K2HPO4) was used to prepare a 1:100 dilution of the starter culture, and OD600
At OD600 = 1, protein induction was initiated by adding 1 mM
247 day, pellets were homogenized and lysed in glycerol lysis buffer (20 mM Tris-HCl pH
Lysis was performed on ice for 30 min, followed by
250 sonication (7 × 20 sec pulses with 20 sec breaks on ice) using a Bandelin sonoplus
Lysates were centrifuged at 4°C for 1 h
253 medium culture was lysed in 20 mL of supernatant (collected in 20 × 1 mL tubes). GST
255 agarose bead; Thermo Fisher Scientific, Waltham, MA, USA). For each 1 mL of
100 μL of GST magnetic beads
257 were washed twice with 500 μL of wash buffer (125 mM Tris-HCl pH 7.4, 150 mM NaCl,
The lysis supernatant was diluted 1:1 with
259 wash buffer, and incubated with the beads on an end-over-end rotator for 1 h at 25°C.
260 After incubation, the supernatant was removed, and the beads were washed twice with
Protein elution was then performed by incubating
263 pH 7.4, 250 mM NaCl, 0.3% Triton X-100) for 30 min at 25°C on an end-over-end rotator.
265 under the same conditions. Elution fractions were pooled and concentrated by
266 centrifugation (4°C, 25 min, 4500 rpm) using a 30 kDa cut-off concentrator (Merck
267 Millipore, #UFC803008, Darmstadt, Germany). Purified proteins were analyzed by
268 colloidal Coomassie stain, WB and MS.
270 Streptavidin pull-downs with GST-DCAF10 and biotinylated peptides
271 Streptavidin magnetic beads (DynabeadsTM MyOneTM Streptavidin T1; Thermo Fisher
272 Scientific, Waltham, MA, USA) were washed twice with 500 μL of wash buffer (125 mM
273 Tris-HCl pH 7.4, 150 mM NaCl, 0.1% Triton X-100). An excess of peptides was added
274 (to ensure full occupancy of the beads) and incubated for 30 min at RT. After peptide
275 binding, beads were again washed three times with 500 μL of wash buffer. The pull-down
276 was then performed in a 100 μL reaction volume with final concentrations of 0.5 µM
277 GST-DCAF10 and 5 µM peptide. GST-DCAF10 or GST alone (as a control) was added
278 to the peptide-streptavidin beads and incubated on a rotator for 1 h at RT. After incubation,
279 the beads were washed three times with 500 μL of wash buffer and resuspended in 4x
280 Laemmli buffer. 1/5 of the input (GST-DCAF10 and GST) and 9/10 of the sample were
281 loaded on a 10% SDS gel and blotted with anti-GST and anti-DCAF10 antibodies, while
282 1/10 was loaded on a 15% SDS gel and blotted with anti-streptavidin antibody to assess
283 equal peptide loading.
285 Streptavidin Sepharose High Performance, GE Healthcare, Chicago, IL, USA) were used.
286 After washing with a high salt wash buffer without detergents (125 mM Tris-HCl pH 7.4,
287 400 mM NaCl), an excess of peptides was added and incubated for 30 min at RT. For each
288 reaction, 10 µL of slurry beads were used. After peptide-binding, beads were again
289 washed once with a high salt wash buffer without detergents and twice with binding buffer
290 without detergents (125 mM Tris-HCl pH 7.4, 150 mM NaCl). The pull-downs were
291 performed in a 100 μL reaction volume in binding buffer without detergents with a final
292 concentration of 0.5 µM GST-DCAF10 and incubated rotating for 1 h at RT. After
293 incubation, the beads were washed five times with 500 μL of high salt wash buffer without […]

## ACIKSKGKDSKK [Ac-Lyn^G2A, Ac-Ala mutant Nt-peptide of Lyn]
DCAF10; Ac-Ala (Ac-Lyn^G2A) vs Ac-Gly (Ac-Lyn^WT), HeLa lysate
  DCAF10 interaction, fold lower relative to Ac-Gly peptide: 15 fold
DCAF10; n = 3 replicates
  DCAF10 binding of Nt-mutant peptides (in words): only identified in 2 of 3 replicates

## GAVKSKEVIRKK [Ac-THOC7^swap, THOC7 peptide carrying Lys5-Ser6-Lys7 of Lyn]
DCAF10; Ac-Lyn^swap vs Ac-THOC7^swap relative to WT comparison
  Reversal of preference after swapping positions 5–7: ~ 133 fold
DCAF10; direct comparisons Ac-Lyn vs Ac-Lyn^swap and Ac-THOC7 vs Ac-THOC7^swap, HeLa lysate
  DCAF10 binding of swap peptide vs its WT (in words): increased binding

## GAVTDDEVIRKK [Ac-THOC7, Nt-peptide of THOC7, Nt-acetylated]
GST-DCAF10
  Binding to GST-DCAF10 (in words): neither Nt-acetylated nor Nt-free THOC7 peptides or GST alone bound DCAF10
DCAF10; HeLa lysate
  DCAF10 binding (in words): did not bind DCAF10 significantly

## GCIAAAGKDSKK [Ac-Lyn^AAA, Ala5-Ala6-Ala7 mutant of Lyn peptide]
DCAF10; HeLa lysate, n = 3
  log₂ difference, Ac-Lyn^WT vs Ac-Lyn^AAA, DCAF10: −0.41

## GCIKSKENKSKK [Ac-Yes, Nt-peptide of Yes, Nt-acetylated]
DCAF10; HeLa lysate
  DCAF10 binding (in words): bound to DCAF10

— PMC12775124, “CUL4A-DDB1-DCAF10 is an N-recognin for N-terminally acetylated Src kinases” (Nature Communications, 2026)
